From patent publication US20220386635A1, “NITRITE REPLACEMENT (CURING AIDS) CONTAINING NATURAL INGREDIENTS” (KEMIN INDUSTRIES, INC., priority 2021, published 2022)
Several values for one entry are separate records, joined by “and”; a condition that tells them apart may be missing. Equal values may be shown once. Read-outs that look alike come from different tables or passages of the source. Marks after values point to notes of the source that are not given here.

What was measured:
[1] = system: C. botulinum spores (Type A: NCTC 7272, Type E: LFMFP-CB 707 and Type E: LFMFP-CB 666); type: cell-based, Clostridium botulinum; conditions: 7° C.; for Anaerobic count: Blend 0.4%, Repl 1 and Repl 2
Listeria monocytogenes [2] = experiment: Listeria monocytogenes challenge study, Example 6; type: cell-based; conditions: after 3 weeks at 7° C.; inoculum 2.6 log10CFU/g
[3] = Color evaluation (L*a*b*, C*, hue) of sausages with black carrot extract, Example 2; conditions: 50 days at 7° C., dark or illuminated last 72 h
[4] = Lipid oxidation (TBARS) in cooked sausages; conditions: 7° C., shelf life of 8 weeks; threshold for off-odor 0.5 ppm
Listeria monocytogenes [5] = experiment: Listeria monocytogenes challenge test, Example 5 experiment 1; type: cell-based
C. botulinum spores = type: cell-based, Clostridium botulinum
[6] = Physico-chemical parameters of low salt emulsified cooked pork sausages, Example 6
botulinum toxin = system: botulinum toxin; parameters: species or system Clostridium botulinum
[7] = low salt (1.2%) sausage, dosages per Table 23
[8] = low salt sausage, dosages per Table 23

For `O=NO` [Positive control, sodium nitrite], the “growth of C. botulinum” value ([1]; 8 weeks, 0.4% of the invented blend) was “no growth”, the Anaerobic count ([1]; storage time 0 days) was 3.08 log10CFU/g and 2.73 log10CFU/g and the Anaerobic count ([1]; storage time 14 days) was 2.75 log10CFU/g and 2.70 log10CFU/g. The Anaerobic count ([1]; storage time 28 days) was 2.61 log10CFU/g and 2.62 log10CFU/g, the Anaerobic count ([1]; storage time 42 days) was 2.67 log10CFU/g and 2.46 log10CFU/g and the Anaerobic count ([1]; storage time 56 days) was 2.49 log10CFU/g and 2.43 log10CFU/g. The L. monocytogenes count (Listeria monocytogenes [2]) was “more than 7 log10CFU/g”, the “Color stability during storage” value [3] was “faded drastically” and the “Lipid oxidation (TBARS values)” value [4] was “maintain low TBARS values”. For the same compound, the L. monocytogenes count (Listeria monocytogenes [5]; after 8 weeks at 7° C., inoculum 300 CFU/g) was 7 log10CFU/g, the “time to 1 log increase of L. monocytogenes” value (Listeria monocytogenes [5]; positive control with nitrite, 7° C.) was 14 days and the Clostridium botulinum outgrowth (C. botulinum spores; 7° C., 8 weeks, significant growth = >0.5 log10CFU/g) was “no growth of C. botulinum”. The “Anaerobic count (average ± standard deviation, n = 2)” value (C. botulinum spores; storage time 0 days at 7° C., dosages per Table 23) was 3.7 ± 0.1 log10CFU/g, the “Anaerobic count (average ± standard deviation, n = 2)” value (C. botulinum spores; storage time 14 days at 7° C., * significant outgrowth (>0.5 log10CFU/g) in at least one replicate) was 2.3 ± 0.3 log10CFU/g and the “Anaerobic count (average ± standard deviation, n = 2)” value (C. botulinum spores; storage time 24 days at 7° C., * significant outgrowth (>0.5 log10CFU/g) in at least one replicate) was 2.4 ± 0.0 log10CFU/g. The “Anaerobic count (average ± standard deviation, n = 2)” value (C. botulinum spores; storage time 42 days at 7° C., * significant outgrowth (>0.5 log10CFU/g) in at least one replicate) was 2.2 ± 0.1 log10CFU/g, the “Anaerobic count (average ± standard deviation, n = 2)” value (C. botulinum spores; storage time 56 days at 7° C., * significant outgrowth (>0.5 log10CFU/g) in at least one replicate) was 2.2 ± 0.0 log10CFU/g and the aw ([6]; 25° C., low salt sausage, dosages per Table 23) was 0.978. For the same compound, the Salt content ([6]; calculated based on sodium content, low salt sausage) was 1.55%, the “Salt content in aqueous phase” value ([6]; calculated from salt content and moisture content) was 2.9% and the “pH of cooked meat” value [6, 7] was 6.21^a. The “pH of meat batter” value [6, 7] was 5.87^ab, the Acetic acid content [6, 8] was 0.008% and the Moisture content [6, 8] was 52.3%. The “Number of samples in which botulinum toxin was detected to total analyzed samples” value (botulinum toxin) was 0/2.
